Publication PMC8119466, “A screen of FDA-approved drugs identifies inhibitors of protein tyrosine phosphatase 4A3 (PTP4A3 or PRL-3)” (Scientific Reports, 2021)
Where a name gives a salt, the structure may show the parent alone. Read-outs that look alike come from different tables or passages of the source.

Experiments:
Format in all cases: biochemical
recombinant PRL-2 = target: T1, recombinant PRL-2 (Homo sapiens, UniProt Q12974); test: In vitro phosphatase assay (DiFMUP hydrolysis), PRL-2; conditions: for IC50: DiFMUP at KM, read-out: Calculated IC50, PRL-2 phosphatase activity;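 on all read-outs here: PRL-2 activity read as DiFMUP hydrolysis after 20 min at room temperature with drug, enzyme first pre-reduced at 4 °C for 20 min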
T1 construct: 6xHis (N, cleaved yes); made in house; host or cells: E. coli One Shot BL21 Star
T1 sequence (Q12974 1-167): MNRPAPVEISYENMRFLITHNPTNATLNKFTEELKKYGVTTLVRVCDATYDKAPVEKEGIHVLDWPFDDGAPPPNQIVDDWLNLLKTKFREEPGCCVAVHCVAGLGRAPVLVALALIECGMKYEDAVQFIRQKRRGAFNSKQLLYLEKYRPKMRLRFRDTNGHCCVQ

recombinant PRL-3 = target: T2, recombinant PRL-3 (Homo sapiens, UniProt O75365); test: In vitro phosphatase assay (DiFMUP hydrolysis), PRL-3; conditions: for IC50: DiFMUP at KM, read-out: Calculated IC50, PRL-3 phosphatase activity
T2 construct: 6xHis (N, cleaved yes); made in house; host or cells: E. coli One Shot BL21 Star

recombinant PRL-1 = target: T3, recombinant PRL-1 (Homo sapiens, UniProt Q93096); test: In vitro phosphatase assay (DiFMUP hydrolysis), PRL-1; conditions: for IC50: DiFMUP at KM, read-out: Calculated IC50, PRL-1 phosphatase activity
T3 construct: 6xHis (N, cleaved yes); made in house; host or cells: E. coli One Shot BL21 Star
T3 sequence (Q93096 1-173): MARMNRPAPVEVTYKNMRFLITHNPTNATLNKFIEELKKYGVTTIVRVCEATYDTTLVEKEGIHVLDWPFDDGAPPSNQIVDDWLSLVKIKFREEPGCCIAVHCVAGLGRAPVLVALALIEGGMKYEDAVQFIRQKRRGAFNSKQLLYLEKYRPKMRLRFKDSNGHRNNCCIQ

[1] = FDA-approved drug screen, compared to DMSO
[2] = FDA-approved drug screen, compared to DMSO, listed as Eltrombopag

T2 sequence (O75365 whole entry): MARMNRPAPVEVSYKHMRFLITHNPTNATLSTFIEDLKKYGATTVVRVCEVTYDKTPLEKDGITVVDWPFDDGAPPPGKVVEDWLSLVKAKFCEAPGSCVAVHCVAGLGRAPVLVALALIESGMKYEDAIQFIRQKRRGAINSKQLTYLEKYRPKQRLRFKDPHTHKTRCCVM

| SMILES | % Phosphatase Activity (compared to DMSO) PRL-2 (recombinant PRL-2; [1]) [%] | % Phosphatase Activity (compared to DMSO) PRL-3 (recombinant PRL-3; [1]) [%] | % Phosphatase Activity (compared to DMSO) PRL-1 (recombinant PRL-1; [1]) [%] | also measured |
| --- | --- | --- | --- | --- |
| O=C1Nc2ccc(Cl)cc2[C@@](C#CC2CC2)(C(F)(F)F)O1 [Efavirenz] | 72 | 97 | 87 | – |
| Cl.NCCCC(N)(C(=O)O)C(F)F.O (stereo not drawn) [Eflornithine hydrochloride hydrate] | 84 | 103 | 91 | – |
| COc1cc2c(cc1OC)CN(CCc1ccc(NC(=O)c3cccc4c(=O)c5cccc(OC)c5[nH]c34)cc1)CC2 [Elacridar (GF120918)] | 104 | 100 | 106 | – |
| CN1CCC[C@@H]1Cc1c[nH]c2ccc(CCS(=O)(=O)c3ccccc3)cc12 [Eletriptan HBr] | 121 | 92 | 109 | – |
| CCCCCCCC(=O)N[C@H](CN1CCCC1)[C@H](O)c1ccc2c(c1)OCCO2.O=C(O)C(O)C(O)C(=O)O [Eliglustat Tartrate] | 91 | 96 | 96 | – |
| O=c1oc2c(O)c(O)cc3c(=O)oc4c(O)c(O)cc1c4c23 [Ellagic acid] | 89 | 68 | 98 | – |
| CC1=NN(c2ccc(C)c(C)c2)C(=O)/C1=N\Nc1cccc(-c2cccc(C(=O)O)c2)c1O [Eltrombopag Olamine] | 66 | 35 | 56 | – |
| CC1=NN(c2ccc(C)c(C)c2)C(=O)/C1=N\Nc1cccc(-c2cccc(C(=O)O)c2)c1O [Eltromobag Olamine, reference compound] | – | – | – | IC50 (recombinant PRL-2; […] protein): 166 ± 22 µM; IC50 (recombinant PRL-3; […] protein): 27 ± 4 µM; IC50 (recombinant PRL-1; […] protein): 61 ± 15 µM |
| CC1=NN(c2ccc(C)c(C)c2)C(=O)/C1=N\Nc1cccc(-c2cccc(C(=O)O)c2)c1O [Eltromobag, reference compound] | – | – | – | IC50 (recombinant PRL-2; 2.5 µM protein): > 100 µM; % Phosphatase Activity (compared to DMSO) PRL-2 (recombinant PRL-2; [2]): 68%; IC50 (recombinant PRL-3; 2.5 µM protein): 26 ± 11 µM; % Phosphatase Activity (compared to DMSO) PRL-3 (recombinant PRL-3; [2]): 66%; IC50 (recombinant PRL-1; 2.5 µM protein): 56 ± 10 µM; % Phosphatase Activity (compared to DMSO) PRL-1 (recombinant PRL-1; [2]): 57% |
| COc1cc2c(cc1Cc1cccc(Cl)c1F)c(=O)c(C(=O)O)cn2[C@H](CO)C(C)C [Elvitegravir (GS-9137, JTK-303)] | 84 | 81 | 82 | – |
| CCCCCCCCCCCC1=C(O)C(=O)C=C(O)C1=O [Embelin, reference compound] | 58 | 28 | 40 | IC50 (recombinant PRL-2; 2.5 µM protein): 124 ± 60 µM; IC50 (recombinant PRL-3; 2.5 µM protein): 52 ± 9 µM; IC50 (recombinant PRL-1; 2.5 µM protein): 114 ± 16 µM |
| OC[C@H]1O[C@@H](c2ccc(Cl)c(Cc3ccc(O[C@H]4CCOC4)cc3)c2)[C@H](O)[C@@H](O)[C@@H]1O [Empagliflozin (BI 10773)] | 93 | 97 | 109 | – |
| C[C@H](NC(=O)C(=O)Nc1ccccc1C(C)(C)C)C(=O)N[C@@H](CC(=O)O)C(=O)COc1c(F)c(F)cc(F)c1F [Emricasan] | 72 | 95 | 95 | – |
| Nc1nc(=O)n([C@@H]2CS[C@H](CO)O2)cc1F [Emtricitabine] | – | – | – | % Phosphatase Activity (compared to DMSO) PRL-2 (recombinant PRL-2): 97%; % Phosphatase Activity (compared to DMSO) PRL-3 (recombinant PRL-3): 75%; % Phosphatase Activity (compared to DMSO) PRL-1 (recombinant PRL-1): 104% |
| CCOC(=O)[C@H](CCc1ccccc1)N[C@@H](C)C(=O)N1CCC[C@H]1C(=O)O [Enalapril Maleate] | 92 | 93 | 83 | – |
| C[C@H](N[C@@H](CCc1ccccc1)C(=O)O)C(=O)N1CCC[C@H]1C(=O)O.O.O [Enalaprilat Dihydrate] | 102 | 78 | 102 | – |
| CCN1CCN(c2cc3c(cc2F)c(=O)c(C(=O)O)cn3C2CC2)CC1 [Enrofloxacin] | 176 | 118 | 152 | – |
| CCN(CC)C(=O)/C(C#N)=C/c1cc(O)c(O)c([N+](=O)[O-])c1 [Entacapone] | 87 | 75 | 94 | – |
| C=C1[C@H](CO)[C@@H](O)C[C@@H]1n1cnc2c(=O)[nH]c(N)nc21 [Entecavir Hydrate] | 92 | 71 | 102 | – |
| Nc1ccccc1NC(=O)c1ccc(CNC(=O)OCc2cccnc2)cc1 [Entinostat (MS-275)] | 91 | 80 | 91 | – |
| CN1CCN(c2ccc(C(=O)Nc3n[nH]c4ccc(Cc5cc(F)cc(F)c5)cc34)c(NC3CCOCC3)c2)CC1 [Entrectinib (RXDX-101)] | 282 | 180 | 344 | – |
| CNC(=O)c1ccc(N2C(=S)N(c3ccc(C#N)c(C(F)(F)F)c3)C(=O)C2(C)C)cc1F [Enzalutamide (MDV3100)] | 89 | 71 | 90 | – |
| Cn1cc(C2=C(c3cn(C4CCN(Cc5ccccn5)CC4)c4ccccc34)C(=O)NC2=O)c2ccccc21 [Enzastaurin (LY317615)] | 76 | 82 | 82 | – |
| NS(=O)(=O)NCCNc1nonc1/C(=N/O)Nc1ccc(F)c(Br)c1 [Epacadostat (INCB024360)] | 98 | 95 | 111 | – |
| CC(/C=C1\SC(=S)N(CC(=O)O)C1=O)=C\c1ccccc1 [Epalrestat] | 17 | 74 | 40 | – |
| NC1=NCC2c3ccccc3Cc3ccccc3N12 (stereo not drawn) [Epinastine HCl] | – | – | – | % Phosphatase Activity (compared to DMSO) PRL-2 (recombinant PRL-2): 109%; % Phosphatase Activity (compared to DMSO) PRL-3 (recombinant PRL-3): 80%; % Phosphatase Activity (compared to DMSO) PRL-1 (recombinant PRL-1): 96% |
| CNC[C@H](O)c1ccc(O)c(O)c1 [Epinephrine Bitartrate] | – | – | – | % Phosphatase Activity (compared to DMSO) PRL-2 (recombinant PRL-2): 90%; % Phosphatase Activity (compared to DMSO) PRL-3 (recombinant PRL-3): 82%; % Phosphatase Activity (compared to DMSO) PRL-1 (recombinant PRL-1): 116% |
| CNC[C@H](O)c1ccc(O)c(O)c1 [Epinephrine HCl] | – | – | – | % Phosphatase Activity (compared to DMSO) PRL-2 (recombinant PRL-2): 132%; % Phosphatase Activity (compared to DMSO) PRL-3 (recombinant PRL-3): 90%; % Phosphatase Activity (compared to DMSO) PRL-1 (recombinant PRL-1): 98% |
| COc1cccc2c1C(=O)c1c(O)c3c(c(O)c1C2=O)C[C@@](O)(C(=O)CO)C[C@@H]3O[C@H]1C[C@H](N)[C@@H](O)[C@H](C)O1 [Epirubicin HCl] | 90 | 58 | 78 | – |
| COC(=O)[C@@H]1CC2=CC(=O)CC[C@]2(C)[C@@]23O[C@@H]2C[C@@]2(C)[C@@H](CC[C@@]24CCC(=O)O4)[C@H]13 [Eplerenone] | 112 | 81 | 105 | – |
